Test results from publication PMC11672292, “Discovery of Balasubramide Derivative with Tissue‐Specific Anti‐Inflammatory Activity Against Acute Lung Injury by Targeting VDAC1” (Advanced Science, 2024).

Tests used:
[1] = test system: LPS-stimulated RAW264.7 cells; test: LPS-induced TNF-α release in RAW264.7 macrophages (ELISA); assay type: cell-based, mouse; conditions: Mus musculus, RAW264.7 cells
Procedure: (§1) The anti‐inflammatory effects of all (+)‐balasubramide derivatives were evaluated in Lipopolysaccharide (LPS, L2630, Sigma–Aldrich, USA)‐induced macrophage inflammation model. RAW264.7 cells were pretreated with various compounds or (+)3C‐20 at different concentrations for 3 h, and then stimulated with LPS (100 ng mL^−1) for 2 h for the detection of pro‐inflammatory factors expressions. Similarly, following 3 h co‐incubation with (+)3C‐20, mouse BMDMs were stimulated with LPS (100 ng mL^−1) for 3 h. TNF‐α protein in the culture medium supernatant was measured by a commercial ELISA kit (#1 217 202, DAKEWE, China) following the manufacture's protocols.

BMDMs [2] = test: Cytosolic mtDNA measurement (qPCR) in BMDMs; assay type: cell-based, mouse; conditions: 10 µM
Procedure: BMDMs were stimulated and treated with 10 µM (+)3C‐20 as indicated. Cytosolic mtDNA collection was carried out as previously described.^[ [25] ^] Briefly, BMDMs were washed twice with PBS, harvested, and resuspended in 200 µL mitochondria isolation reagent (Beyotime, C3601) with protease and phosphatase inhibitor cocktail. Cell resuspension was triturated with a glass homogenizer and centrifuged at 11 000 × g for 10 min at 4 °C to pelleted down mitochondria and cell membrane, and the remaining supernatant contained the cytosolic mtDNA that were measured. After DNA purification from the supernatant with FastPure Cell DNA Isolation Mini Kit (DC102‐01, Vazyme, China) according to the manufacturer's instruction, qPCR was performed using specific mtDNA primers (D‐loop, D‐loop1, D‐loop2, D‐loop3).

BMDMs [3] = test: NLRP3 inflammasome-induced pyroptosis, LDH release; assay type: cell-based, mouse; conditions: 10 µM, LPS plus ATP, Nigericin or MSU, compared with parent compound (+)3J
Procedure: According to previous reports,^[ [65] ^] NLRP3 inflammasome was activated in BMDMs primed with LPS (100 ng mL^−1) for 3 h, and the inflammasome was further assembled using ATP (5 mM, A6419, Sigma–Aldrich, USA) for 45 min, or Nigericin ([…], T3092, TargetMol, USA) for 1 h, or Monosodium Urate Crystal (MSU, 600 µg mL^−1, T41242, TargetMol, USA) for 6 h. To investigate the effect of compounds in NLRP3 inflammasome activation, the cells pretreated with compounds were stimulated with LPS for 3 h and followed by stimulation with ATP for another 45 min, or nigericin for another 1 h, or MSU for another 6 h to activate NLRP3 inflammasome.
Cell culture supernatants were collected and centrifuged to remove cell debris at 800 rpm for 5 min. LDH measurement was performed with an LDH cytotoxicity assay kit (C0017, Beyotime, China) according to the manufacture's instructions. Data were plotted normalizing the OD490 value of the model group as 100%.

mouse BMDMs = test: LPS-induced TNF-α release in BMDMs (ELISA); assay type: cell-based; conditions: BMDM, read-out: IC50, inhibition of LPS-induced TNF-α release
Procedure: as §1

mice = test: Acute toxicity (LD50, sequential method), single intravenous injection; conditions: i.v.
Source text: To test the safety of (+)3C‐20 in mice, as previously reported,^[ [31] ^] we estimated the acute toxicity of (+)3C‐20 in mice using a sequential method.

[4] = target: T1, recombinant human VDAC1 protein (rhVDAC1) (Homo sapiens, UniProt P21796); test: Surface plasmon resonance (SPR); assay type: binding
T1 construct: purchased Atagenix, China
Procedure: To investigate the interaction of (+)3C‐20 and recombinant human VDAC1 protein (rhVDAC1), SPR experiments were performed. The overall experimental procedures were based on previous reports and had been improved with some modifications.^[ [35] ^] Briefly, 10 µM (+)3C‐20 was printed on the 3D photo‐crosslinking chip via the Biodot AD1520 chip array printer through a C─H covalent bond connection, and DMSO was conducted as a negative control at the same time. Following the vacuum‐dying and photo‐crosslinking reaction of the chip, the surface of the chip was flowed through with different concentrations (10, 40, 160, 640, 2560 nmol L^−1) of rhVDAC1 protein in PBST at 0.5 µL s^−1 for 600 s. Then, the proteins were dissociated from the surface of the chip in Glycine‐HCl (pH 2.0) at 2 µL s^−1 for 360 s. The binding signals (RU) were detected dynamically using Berthold bScreen LB 991. The RU responses of (+)3C‐20 with rhVDAC1 protein were recorded and ranked to determine the interaction intensity level, and the binding curve and affinity data were calculated by the system according to the Langmuir binding model.

T1 sequence (P21796 whole entry): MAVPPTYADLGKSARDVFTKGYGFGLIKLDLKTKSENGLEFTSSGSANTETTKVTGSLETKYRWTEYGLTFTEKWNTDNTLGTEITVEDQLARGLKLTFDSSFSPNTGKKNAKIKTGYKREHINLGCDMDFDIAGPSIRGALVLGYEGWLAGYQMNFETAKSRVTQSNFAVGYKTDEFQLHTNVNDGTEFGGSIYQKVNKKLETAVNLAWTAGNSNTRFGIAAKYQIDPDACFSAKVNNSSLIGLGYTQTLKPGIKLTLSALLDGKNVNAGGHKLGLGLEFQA

With `O=C(CCc1ccc(C(F)(F)F)cc1)O[C@@H]1C(=O)NCCc2c([nH]c3ccccc23)[C@H]1c1ccc(C(F)(F)F)cc1` [(+)3C-20] the inhibition at 10 µM ([1]; 10 μM + LPS (100 ng/mL), n = 3, read-out: Inhibition rate (%) of TNF-α release) was 82 ± 3.93%, the IC50 ([1]; read-out: IC50, inhibition of LPS-induced TNF-α release) was 11.8 µM and the “increase in cytosolic mtDNA caused by LPS” value (BMDMs [2]) was “significantly inhibited”. The “NLRP3 inflammasome activators-stimulated cell death (membrane blebbing, LDH release)” value (BMDMs [3]) was “significantly decreased”, the IC50 (mouse BMDMs) was 3.64 µM and the Mortality (mice; dosage 141.42 mg/kg) was 0. The Mortality (mice; dosage 168.18 mg/kg) was 20, the Mortality (mice; dosage 200.00 mg/kg) was 83.33 and the Mortality (mice; dosage 237.84 mg/kg) was 100. It also gave a Kd ([4]; hVDAC1, printed in picture of Figure 5G) of 3.95 µM and a Kd ([4]; rhVDAC1) of about 3.95 µM.
